Our source for the relative viability values is the supplement of paper PMC10307832.

Common to all, as to assay: relative viability (nuclei count vs DMSO), 5 days (fraction); higher = more cells survive
Compound in the assay “Bicalutamide + Alpelisib”: CC(O)(CS(=O)(=O)c1ccc(F)cc1)C(=O)Nc1ccc(C#N)c(C(F)(F)F)c1 [Bicalutamide] + Cc1nc(NC(=O)N2CCC[C@H]2C(N)=O)sc1-c1ccnc(C(C)(C)C(F)(F)F)c1 [Alpelisib] (partner 2 µM)
Summed up: (§1)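 Cells from lung cancer lines were seeded into 1536-well plates and, one day later, dosed by pin tool. Treatments were either a single drug or a fixed dose of an anchor drug with five library-drug doses (not always all listed) in √10 steps. After 5 days, nuclei were stained in a one-step fixation (final 0.05% Triton X-100, 1% formaldehyde, 1 ug/ml Hoechst) and counted on 4× images, and relative viability is the treated-to-vehicle nuclei ratio, as the median of duplicate plates.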

Compound in the assay “Bromopyruvate + OSI-027”: C(C(=O)C(=O)O)Br [Bromopyruvate] + COc1cccc2cc(-c3nc([C@H]4CC[C@H](C(=O)O)CC4)n4ncnc(N)c34)[nH]c12 [OSI-027] (partner 0.5 µM)
Summed up:
as §1

Compound in assay [1]: C(C(=O)C(=O)O)Br [Bromopyruvate] + Cc1cc(Nc2cc(N3CCN(C)CC3)nc(Sc3ccc(NC(=O)C4CC4)cc3)n2)n[nH]1 [Tozasertib] (partner 0.1 µM)
Summed up: as §1

Compound in the assay “Bromopyruvate + AZD7762”: C(C(=O)C(=O)O)Br [Bromopyruvate] + NC(=O)Nc1cc(-c2cccc(F)c2)sc1C(=O)N[C@H]1CCCNC1 [AZD7762] (partner 0.2 µM)
Summed up: as §1

For the cell line NCI-H1299, the relative viability amounted to 1.11 with Bicalutamide + Alpelisib (first compound 0.08 µM), 1.13 in the assay with Bicalutamide + Alpelisib (first compound 0.253 µM), 1.08 with Bicalutamide + Alpelisib (first compound 0.8 µM) and 1.11 in the assay with Bicalutamide + Alpelisib (first compound 2.53 µM).
For the cell line NCI-H661, the relative viability in the assay with Bromopyruvate + OSI-027 (first compound 1 µM) is 0.719; with Bromopyruvate + OSI-027 (first compound 3.162 µM), 0.67; in the assay with Bromopyruvate + OSI-027 (first compound 10 µM), 0.685; with Bromopyruvate + OSI-027 (first compound 31.62 µM), 0.64; with Bromopyruvate + OSI-027 (first compound 100 µM), 0.749; in assay [1] (first compound 1 µM) it was 0.35. Besides, the relative viability in assay [1] (first compound 3.162 µM) is 0.361; in assay [1] (first compound 10 µM), 0.335; in assay [1] (first compound 31.62 µM) it was 0.348; in assay [1] (first compound 100 µM) it was 0.362; with Bicalutamide + Alpelisib (first compound 0.08 µM), 0.594; in the assay with Bicalutamide + Alpelisib (first compound 0.253 µM) it was 0.591. The relative viability stood at 0.833 in the assay with Bicalutamide + Alpelisib (first compound 0.8 µM) and 0.829 with Bicalutamide + Alpelisib (first compound 2.53 µM).
Turning to NCI-H1650, the relative viability stood at 0.642 with Bromopyruvate + OSI-027 (first compound 1 µM); 0.592 with Bromopyruvate + OSI-027 (first compound 3.162 µM); 0.669 with Bromopyruvate + OSI-027 (first compound 10 µM); 0.757 in the assay with Bromopyruvate + OSI-027 (first compound 31.62 µM); 0.464 with Bromopyruvate + OSI-027 (first compound 100 µM); 0.441 in assay [1] (first compound 1 µM). Also, the relative viability in assay [1] (first compound 3.162 µM) turned out to be 0.489; in assay [1] (first compound 10 µM), 0.362; in assay [1] (first compound 31.62 µM), 0.504; in assay [1] (first compound 100 µM) it was 0.241.
COR-L 105: the relative viability stood at 0.563 with Bromopyruvate + OSI-027 (first compound 1 µM); 0.701 with Bromopyruvate + OSI-027 (first compound 3.162 µM); 0.712 with Bromopyruvate + OSI-027 (first compound 10 µM); 0.671 in the assay with Bromopyruvate + OSI-027 (first compound 31.62 µM); 0.639 in the assay with Bromopyruvate + OSI-027 (first compound 100 µM); 0.36 in assay [1] (first compound 1 µM). Moreover, the relative viability in assay [1] (first compound 3.162 µM) was found to be 0.34; in assay [1] (first compound 10 µM) it was 0.279; in assay [1] (first compound 31.62 µM), 0.352; in assay [1] (first compound 100 µM), 0.435; in the assay with Bicalutamide + Alpelisib (first compound 0.08 µM), 0.957; in the assay with Bicalutamide + Alpelisib (first compound 0.253 µM) it was 0.89. Moreover, the figures for the relative viability in the assay with Bicalutamide + Alpelisib (first compound 0.8 µM) and in the assay with Bicalutamide + Alpelisib (first compound 2.53 µM) were 1 and 0.83, respectively.
NCI-H2009: the relative viability with Bromopyruvate + OSI-027 (first compound 1 µM) is 0.6; in the assay with Bromopyruvate + OSI-027 (first compound 3.162 µM), 0.66; with Bromopyruvate + OSI-027 (first compound 10 µM), 0.669; with Bromopyruvate + OSI-027 (first compound 31.62 µM) it was 0.545; in the assay with Bromopyruvate + OSI-027 (first compound 100 µM) it was 0.305; in assay [1] (first compound 1 µM), 0.743. Moreover, the relative viability came to 0.78 in assay [1] (first compound 3.162 µM); 0.767 in assay [1] (first compound 10 µM); 0.723 in assay [1] (first compound 31.62 µM); 0.444 in assay [1] (first compound 100 µM); 1.25 in the assay with Bicalutamide + Alpelisib (first compound 0.08 µM); 1.14 with Bicalutamide + Alpelisib (first compound 0.253 µM). Besides, the relative viability with Bicalutamide + Alpelisib (first compound 0.8 µM) stood at 1.13; with Bicalutamide + Alpelisib (first compound 2.53 µM), 1.18.
As to ChaGo-K-1, the relative viability with Bromopyruvate + OSI-027 (first compound 1 µM) was 0.715; with Bromopyruvate + OSI-027 (first compound 3.162 µM), 0.521; in the assay with Bromopyruvate + OSI-027 (first compound 10 µM), 0.629; with Bromopyruvate + OSI-027 (first compound 31.62 µM), 0.578; in the assay with Bromopyruvate + OSI-027 (first compound 100 µM), 0.493; in assay [1] (first compound 1 µM) it was 0.234. Besides, the relative viability was determined as 0.263 in assay [1] (first compound 3.162 µM); 0.247 in assay [1] (first compound 10 µM); 0.216 in assay [1] (first compound 31.62 µM); 0.205 in assay [1] (first compound 100 µM); 0.881 with Bromopyruvate + AZD7762 (first compound 1 µM); 0.868 in the assay with Bromopyruvate + AZD7762 (first compound 3.162 µM). The figures for the relative viability in the assay with Bromopyruvate + AZD7762 (first compound 10 µM), with Bromopyruvate + AZD7762 (first compound 31.62 µM) and in the assay with Bromopyruvate + AZD7762 (first compound 100 µM) were 0.874, 0.866 and 0.92, respectively.
Take NCI-H520: the relative viability with Bromopyruvate + OSI-027 (first compound 1 µM) came to 0.243; with Bromopyruvate + OSI-027 (first compound 3.162 µM) it was 0.259; with Bromopyruvate + OSI-027 (first compound 10 µM) it was 0.25; in the assay with Bromopyruvate + OSI-027 (first compound 31.62 µM) it was 0.23; with Bromopyruvate + OSI-027 (first compound 100 µM), 0.289; in assay [1] (first compound 1 µM) it was 0.467. Further, the relative viability in assay [1] (first compound 3.162 µM) was found to be 0.448; in assay [1] (first compound 10 µM), 0.395; in assay [1] (first compound 31.62 µM), 0.422; in assay [1] (first compound 100 µM) it was 0.328; in the assay with Bicalutamide + Alpelisib (first compound 0.08 µM), 1.08; in the assay with Bicalutamide + Alpelisib (first compound 0.253 µM) it was 0.945. Besides, the relative viability in the assay with Bicalutamide + Alpelisib (first compound 0.8 µM) came out at 1.1; with Bicalutamide + Alpelisib (first compound 2.53 µM), 0.808.
